These results are taken from patent US20030125389A1, “Beta-amino acid derivatives useful for the treatment of bacterial infections” (priority 2001, published 2003).

Test [1] deals with Gram negative and Gram positive bacteria. The settings on record: against Gram negative and Gram positive bacteria; cited from earlier work.
In test [2] the test system is Escherichia coli ATCC 25922. The test is described as follows: Mouse septicemia model. The test is classed as in vivo. The settings on record: ATCC25922, ICR male mice, E. coli ATCC 25922 intraperitoneally, compound PO or IV at 1 and 5 hours after inoculation, mortality recorded for 7 days. Here is the method: Escherichia coli ATCC 25922 was used to test the efficacy of compounds in a mouse septicemia model using six ICR male mice per group. Mice were inoculated intraperitoneally with 2×10^5 cfu/mouse in 0.5 ml of Brain-Heart Infusion broth supplemented with 5% mucin. The compounds were tested at 40, 20, 10, 5 and 2.5 mg/kg orally (PO) or at 20, 10, 5 and 2.5 mg/kg intravenously (IV) at 1 and 5 hours after bacterial inoculation. Controls included vehicle control (0.9% NaCl, 10 ml/kg) and an antibiotic control with ampicillin. Mortality was recorded for 7 days, and an ED50 was determined by non-linear regression.

Test [3] deals with a variety of standard laboratory microorganisms. The settings on record: cited from earlier work.

Bounds are passed on as bounds.

Regarding `CN(CC(=O)O)NC(=O)C[C@H](N)C[C@@H](O)CN` [Negamycin, [2-{(3R, 5R)-3,6-diamino-5-hydroxyhexanoyl}-1-methylhydrazino]acetic acid], the inhibitory activity entry in test [1] is recorded as “strong inhibitory activity”.
What is called ED50 is the dose at which the effect has come halfway, by size or by number of responders. A lower ED50 goes with an effect at a small dose. With `CNC[C@H](O)C[C@@H](N)CC(=O)NN(C)CC(=O)O` [Example 1], in test [2], the 50% effective dose (ED50) is < 40 mg/kg.
The same measure, in the same setting: for `CNC[C@H](F)C[C@@H](N)CC(=O)NN(C)CC(=O)O` [Example 7, {N′-[(3R)-Amino-(5R)-fluoro-6-methylaminohexanoyl]-N-methylhydrazino}acetic acid] the value was < 40 mg/kg.
On to `CN(CC(=O)O)NC(=O)C[C@H](N)CCCN` [Deoxynegamycin, D-3,6-diaminiohexanoic acid-2-(carboxymethyl)-2-methylhyrazide], for which the “antimicrobial activity in vitro” value in test [3] was “broad-spectrum antibacterial and antifungal activity”.
On to `CN(CC(=O)O)NC(=O)C[C@H](N)C[C@@H](F)CN` [Example 5, {N′-[(3R)-Amino-6-amino-(5R)-fluorohexanoyl]-N-methylhydrazino}acetic acid], for which the 50% effective dose (ED50) in test [2] was < 40 mg/kg.
